According to article PMC8920929 (The Journal of Biological Chemistry, 2022):
Positions count from the first letter of the chain named.

Columns and labels:
TRPV3-D512A = molecular target: T1, TRPV3-D512A (Homo sapiens, UniProt Q8NET8, D512A); assay: Whole-cell and single-channel recordings of the TRPV3-D512A mutant; assay type: cell-based
T1 sequence (Q8NET8 1-790 D512A): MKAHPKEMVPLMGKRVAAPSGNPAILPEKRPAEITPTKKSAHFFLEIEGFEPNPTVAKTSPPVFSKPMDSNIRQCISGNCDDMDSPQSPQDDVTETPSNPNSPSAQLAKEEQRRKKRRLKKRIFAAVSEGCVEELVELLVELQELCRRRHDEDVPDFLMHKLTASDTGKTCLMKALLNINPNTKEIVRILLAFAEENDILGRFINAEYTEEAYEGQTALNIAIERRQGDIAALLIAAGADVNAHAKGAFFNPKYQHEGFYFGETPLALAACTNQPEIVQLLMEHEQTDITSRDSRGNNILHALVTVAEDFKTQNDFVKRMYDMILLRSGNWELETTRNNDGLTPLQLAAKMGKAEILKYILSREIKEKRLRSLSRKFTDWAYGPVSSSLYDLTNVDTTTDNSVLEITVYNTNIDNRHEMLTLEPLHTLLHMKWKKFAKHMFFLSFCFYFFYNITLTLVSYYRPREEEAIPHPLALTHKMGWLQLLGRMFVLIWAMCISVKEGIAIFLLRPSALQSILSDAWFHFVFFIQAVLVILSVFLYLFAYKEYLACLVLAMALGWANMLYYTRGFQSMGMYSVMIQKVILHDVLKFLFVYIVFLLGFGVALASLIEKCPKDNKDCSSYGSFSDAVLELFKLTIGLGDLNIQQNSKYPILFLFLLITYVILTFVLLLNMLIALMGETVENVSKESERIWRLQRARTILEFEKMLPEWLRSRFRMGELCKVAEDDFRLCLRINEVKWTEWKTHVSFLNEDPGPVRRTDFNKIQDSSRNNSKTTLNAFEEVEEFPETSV

TRPV3-L508F = molecular target: T2, TRPV3-L508F (Homo sapiens, UniProt Q8NET8, L508F); assay: Whole-cell and single-channel recordings of the TRPV3-L508F mutant; assay type: cell-based; details: carvacrol 0.3-3.0 mM or 50 μM 2-APB
T2 sequence (Q8NET8 1-790 L508F): T1 sequence (Q8NET8 1-790 D512A) with L508F, A512D

TRPV3-R509A = molecular target: T3, TRPV3-R509A (Homo sapiens, UniProt Q8NET8, R509A); assay: Whole-cell and single-channel recordings of the TRPV3-R509A mutant; assay type: cell-based
T3 sequence (Q8NET8 1-790 R509A): T1 sequence (Q8NET8 1-790 D512A) with R509A, A512D

TRPV3 = details: read-out: EC50, activation of TRPV3; ref [23], [30]; cited from earlier work

- EC50 (TRPV3-D512A): 3210 ± 480 µM
- right shift of channel activation versus WT TRPV3 (TRPV3-D512A; D512A versus WT): over 10 fold
- sensitivity of TRPV3 D512A mutant channel (TRPV3-D512A; carvacrol 0.3-3.0 mM): decreased the sensitivity
- activation of TRPV3 L508F mutant channel (TRPV3-L508F): ablated TRPV3 activation
- EC50 (TRPV3-R509A): 2930 ± 110 µM
- right shift of channel activation versus WT TRPV3 (TRPV3-R509A; R509A versus WT): over 10 fold
- sensitivity of TRPV3 R509A mutant channel (TRPV3-R509A; macroscopic and single-channel current levels): decreased the channel sensitivity
Structure (SMILES): Cc1ccc(C(C)C)cc1O [carvacrol, 5-Isopropyl-2-methylphenol]
- EC50 (TRPV3): 497 ± 70 µM
